Results: patent US10183022B2, “Pharmaceutical composition for treating ulcerative colitis” (EA Pharma Co., Ltd., priority 2014, dated 2019)
Several values for one entry are separate records, joined by “and”; a condition that tells them apart may be missing. Equal values may be shown once.

Test system: ulcerative colitis patients in an active stage
Assay: Clinical study, 960 mg orally 3 times a day for 8 weeks: Mayo score, partial Mayo score, response rate, remission rate
Assay type: in vivo, human
Parameters: key to Mayo score, Mean / Mayo score, Minimum / Mayo score, Maximum / Mayo score, Upper quartile / Mayo score, Median / Mayo score, Lower quartile: Mayo score = total of 4 subscores (stool, bloody stool, mucosa, global); key to Mayo score, difference in mean between Example 1 and Comparative Example 1: Mayo score points (total of 4 subscores)
Method: A tablet comprising 120 mg of the compound of the formula (1) was coated with a film. Thus, a film-coated tablet was prepared (compound of Example 1).
The compound of Example 1 or the compound of Comparative Example 1 was orally administered after meals 3 times a day. The number of the given tablets was 8 per administration (i.e., the amount of the compound (1) of Example 1 administered was 960 mg per administration). The administration period was 8 weeks. The compounds were administered until the timing after the breakfast on the day before the assessment day at Week 8.
As the subjects, 102 cases (Comparative Example 1: 51 cases, Example 1: 51 cases) were analyzed for assessment items to be described later.
The investigators or sub-investigators assessed subscores (“stool frequency,” “bloody stool,” “mucosal finding,” and “physician's global assessment”) of the Mayo score according to (1) to (4) below. A Mayo score was a total value of four subscore items of “stool frequency,” “bloody stool,” “mucosal finding,” and “physician's global assessment.” Meanwhile, a partial Mayo score was a total value of three subscore items of the Mayo score excluding “mucosal finding.” Note that, for the Mayo score and the partial Mayo score at Week 0, scores obtained at the time of the eligibility determination were used.
A proportion of subjects satisfying the following conditions (a) and (b) (response rate): • (a) the Mayo score was reduced by 30% or more and by 3 points or more in comparison with that at Week 0; and • (b) the subscore for bloody stool was reduced by 1 point or more in comparison with that at Week 0 or was 1 point or less.
Regarding the response rate (proportion of response cases) (Week 8), Example 1 was compared with Comparative Example 1 by setting a logistic regression model using the following adjusting factors as covariates to conduct a superiority test.
• 1. either subjects on whom a 5-ASA preparation (including a SASP preparation) or a corticosteroid preparation has an insufficient effect or who are intolerant to a 5-ASA preparation (including a SASP preparation) or a corticosteroid preparation; and • 2. the Mayo scores (6 points or more but 7 points or less, 8 points or more but 10 points or less) on the eligibility verification day. (1) Main Analysis
Using the response rate at Week 8 as a primary endpoint, a main effect model was set as the main analysis.
A remission rate is a proportion of subjects each having a Mayo score of 2 points or less with the individual subscores of 1 point or less.

Q: Which “Response rate in comparison with Comparative Example (placebo)” value (960 mg orally 3 times a day for 8 weeks) does the source give for `COC(=O)[C@H](Cc1ccc(-n2c(=O)c3cc(N(C)C)ccc3n(C)c2=O)cc1)NC(=O)c1c(Cl)cccc1Cl` [Example 1, methyl(2S)-2-(2,6-dichlorobenzamide)-3-{4-[6-(dimethylamino)-1-methyl-2,4-dioxo-1,4-dihydroquinazolin-3(2H)-yl]phenyl}propanoate] here?
A: significantly improved

Q: And the Response rate (3 months or more but less than 6 months after remission induction therapy started (6/10 cases))?
A: 60.0%

Q: And the Response rate (6 months or more after remission induction therapy started (5/11 cases))?
A: 45.5%

Q: And the Response rate (Mayo score 6 points or more but 7 points or less (15/20 cases))?
A: 75.0%

Q: And the Response rate (Mayo score 8 points or more but 10 points or less (17/31 cases))?
A: 54.8%

Q: What about the “Mayo score, Lower quartile” value (Week 0) of the same molecule?
A: 7.0

Q: What about the “Mayo score, Maximum” value (Week 0) of the same molecule?
A: 10

Q: What about the “Mayo score, Mean” value (Week 0) of the same molecule?
A: 7.8±1.2 and 7.8

Q: What about the “Mayo score, Median” value (Week 0) of the same molecule?
A: 8.0

Q: And the “Mayo score, Minimum” value (Week 0)?
A: 6

Q: What about the “Mayo score, Upper quartile” value (Week 0) of the same molecule?
A: 9.0

Q: What about the “Partial Mayo score, Lower quartile” value (Week 0) of the same molecule?
A: 5.0

Q: And the “Partial Mayo score, Maximum” value (Week 0)?
A: 8

Q: And the “Partial Mayo score, Mean” value (Week 0)?
A: 5.7±1.1 and 5.7

Q: What about the “Partial Mayo score, Median” value (Week 0) of the same molecule?
A: 6.0

Q: What about the “Partial Mayo score, Minimum” value (Week 0) of the same molecule?
A: 4

Q: What about the “Partial Mayo score, Upper quartile” value (Week 0) of the same molecule?
A: 6.0

Q: What about the “Partial Mayo score, Lower quartile” value (Week 2) of the same molecule?
A: 3.0

Q: And the “Partial Mayo score, Maximum” value (Week 2)?
A: 8

Q: What about the “Partial Mayo score, Mean” value (Week 2) of the same molecule?
A: 4.4±1.7 and 4.4

Q: And the “Partial Mayo score, Median” value (Week 2)?
A: 5.0

Q: And the “Partial Mayo score, Minimum” value (Week 2)?
A: 0

Q: And the “Partial Mayo score, Upper quartile” value (Week 2)?
A: 6.0

Q: What about the “Partial Mayo score, difference in mean between Example 1 and Comparative Example 1” value (“Partial Mayo score, difference” for short) (Week 2) of the same molecule?
A: −0.55

Q: What about the “Partial Mayo score, Lower quartile” value (Week 4) of the same molecule?
A: 2.0

Q: And the “Partial Mayo score, Maximum” value (Week 4)?
A: 8

Q: What about the “Partial Mayo score, Mean” value (Week 4) of the same molecule?
A: 3.5±2.0 and 3.5

Q: And the “Partial Mayo score, Median” value (Week 4)?
A: 3.0

Q: What about the “Partial Mayo score, Minimum” value (Week 4) of the same molecule?
A: 0

Q: And the “Partial Mayo score, Upper quartile” value (Week 4)?
A: 5.0

Q: And the “Partial Mayo score, difference” value (Week 4)?
A: −1.16

Q: And the “Difference in remission rates, Example 1 vs Comparative Example 1 (placebo)” value (Week 8)?
A: 19.6%

Q: And the “Difference in response rates, Example 1 vs Comparative Example 1 (placebo)” value (Week 8)?
A: 37.3%

Q: What about the “Mayo score, Lower quartile” value (Week 8) of the same molecule?
A: 2.0

Q: What about the “Mayo score, Maximum” value (Week 8) of the same molecule?
A: 9

Q: What about the “Mayo score, Mean” value (Week 8) of the same molecule?
A: 4.0±2.4 and 4.0

Q: What about the “Mayo score, Median” value (Week 8) of the same molecule?
A: 4.0

Q: And the “Mayo score, Minimum” value (Week 8)?
A: 0

Q: And the “Mayo score, Upper quartile” value (Week 8)?
A: 5.0

Q: And the “Mayo score, difference in mean between Example 1 and Comparative Example 1” value (Week 8)?
A: −2.14

Q: What about the “Partial Mayo score, Lower quartile” value (Week 8) of the same molecule?
A: 2.0

Q: What about the “Partial Mayo score, Maximum” value (Week 8) of the same molecule?
A: 8

Q: What about the “Partial Mayo score, Mean” value (Week 8) of the same molecule?
A: 3.1±2.1 and 3.1

Q: What about the “Partial Mayo score, Median” value (Week 8) of the same molecule?
A: 3.0

Q: And the “Partial Mayo score, Minimum” value (Week 8)?
A: 0

Q: What about the “Partial Mayo score, Upper quartile” value (Week 8) of the same molecule?
A: 4.0

Q: What about the “Partial Mayo score, difference” value (Week 8) of the same molecule?
A: −1.63

Q: And the Remission cases (Week 8, 51 cases analyzed)?
A: 12

Q: What about the Response cases (Week 8, 51 cases analyzed) of the same molecule?
A: 32

Q: And the Remission rate (Week 8, all subjects)?
A: 23.5%

Q: And the Response rate (Week 8, all subjects)?
A: 62.7%

Q: And the “Estimate of odds ratio of Example 1 to Comparative Example 1 (placebo group), response rate” value (Week 8, logistic regression model)?
A: 5.35

Q: What about the Remission rate (body weight 50 kg or more and disease period less than 5 years (7/22 cases)) of the same molecule?
A: 31.8%

Q: And the Response rate (body weight 50 kg or more and disease period less than 5 years (16/22 cases))?
A: 72.7%

Q: And the Response rate (body weight 50 kg or more but less than 60 kg (9/13 cases))?
A: 69.2%

Q: What about the Response rate (body weight less than 50 kg (5/9 cases)) of the same molecule?
A: 55.6%

Q: What about the Response rate (disease for 1 year or more but less than 5 years (13/21 cases)) of the same molecule?
A: 61.9%

Q: What about the Response rate (disease for 5 years or more (13/24 cases)) of the same molecule?
A: 54.2%

Q: What about the Response rate (disease for less than 1 year (6/6 cases)) of the same molecule?
A: 100.0%

Q: And the Response rate (disease occurring for the first time (3/5 cases))?
A: 60.0%

Q: What about the Response rate (disease relapsing (29/46 cases)) of the same molecule?
A: 63.0%

Q: What about the Response rate (females (13/20 cases)) of the same molecule?
A: 65.0%

Q: And the Response rate (left-sided colitis subjects (19/29 cases))?
A: 65.5%

Q: And the Response rate (less than 1 month after remission induction therapy started (8/13 cases))?
A: 61.5%

Q: What about the Response rate (males (19/31 cases)) of the same molecule?
A: 61.3%

Q: What about the Response rate (most active site at S or Rs and disease period less than 5 years (9/10 cases)) of the same molecule?
A: 90.0%

Q: What about the Response rate (most active site of mucosal inflammation at Ra or Rb (15/28 cases)) of the same molecule?
A: 53.6%

Q: And the Response rate (most active site of mucosal inflammation at S or Rs (17/23 cases))?
A: 73.9%

Q: And the Response rate (not receiving enema agent or suppository therapy in the active stage this time (21/34 cases))?
A: 61.8%

Q: And the Response rate (pancolitis subjects (13/22 cases))?
A: 59.1%

Q: And the Response rate (received enema agent or suppository therapy but terminated due to insufficient effect (11/17 cases))?
A: 64.7%

Q: And the Response rate (relapsing subjects, disease period less than 5 years (16/22 cases))?
A: 72.7%

Q: And the Response rate (relapsing subjects, stool frequency 6 times or less per day (25/32 cases))?
A: 78.1%

Q: What about the Response rate (stool frequency 6 times or less per day and disease period less than 5 years (16/20 cases)) of the same molecule?
A: 80.0%

Q: And the Response rate (stool frequency 6 times or less per day before administration (28/37 cases))?
A: 75.7%

Q: And the Response rate (stool frequency 7 times or more per day before administration (4/14 cases))?
A: 28.6%

Q: What about the Response rate (subjects intolerant to a 5-ASA preparation (2/2 cases)) of the same molecule?
A: 100.0%

Q: And the Response rate (subjects intolerant to a corticosteroid preparation (0/1 case))?
A: 0.0%

Q: What about the Response rate (subjects on whom a 5-ASA preparation had an insufficient effect (28/46 cases)) of the same molecule?
A: 60.9%

Q: And the Response rate (subjects on whom a corticosteroid preparation had an insufficient effect (2/2 cases))?
A: 100.0%
